In ChEMBL document CHEMBL4028801, “A multifactorial approach to hepatobiliary transporter assessment enables improved therapeutic compound development” (Toxicol Sci, 2013):

Legend:
[1] = target: ATP-binding cassette sub-family C member 2 (Homo sapiens, UniProt Q92887); assay: Inhibition of human MRP2 overexpressed in Sf9 cell membrane vesicles assessed as uptake of [3H]-estradiol-17beta-D-glucuronide in presence of ATP and GSH measured after 20 mins by membrane vesicle transport assay
[2] = Drug concentration at steady state in human at 10 mg, po QD after 24 hrs; settings: in vivo
[3] = target: T1, ATP-binding cassette sub-family C member 4 (Homo sapiens, UniProt O15439); assay: Inhibition of human MRP4 overexpressed in Sf9 cell membrane vesicles assessed as uptake of [3H]-estradiol-17beta-D-glucuronide in presence of ATP and GSH measured after 20 mins by membrane vesicle transport assay; format: ADME, cell-based
T1 sequence (O15439 whole entry): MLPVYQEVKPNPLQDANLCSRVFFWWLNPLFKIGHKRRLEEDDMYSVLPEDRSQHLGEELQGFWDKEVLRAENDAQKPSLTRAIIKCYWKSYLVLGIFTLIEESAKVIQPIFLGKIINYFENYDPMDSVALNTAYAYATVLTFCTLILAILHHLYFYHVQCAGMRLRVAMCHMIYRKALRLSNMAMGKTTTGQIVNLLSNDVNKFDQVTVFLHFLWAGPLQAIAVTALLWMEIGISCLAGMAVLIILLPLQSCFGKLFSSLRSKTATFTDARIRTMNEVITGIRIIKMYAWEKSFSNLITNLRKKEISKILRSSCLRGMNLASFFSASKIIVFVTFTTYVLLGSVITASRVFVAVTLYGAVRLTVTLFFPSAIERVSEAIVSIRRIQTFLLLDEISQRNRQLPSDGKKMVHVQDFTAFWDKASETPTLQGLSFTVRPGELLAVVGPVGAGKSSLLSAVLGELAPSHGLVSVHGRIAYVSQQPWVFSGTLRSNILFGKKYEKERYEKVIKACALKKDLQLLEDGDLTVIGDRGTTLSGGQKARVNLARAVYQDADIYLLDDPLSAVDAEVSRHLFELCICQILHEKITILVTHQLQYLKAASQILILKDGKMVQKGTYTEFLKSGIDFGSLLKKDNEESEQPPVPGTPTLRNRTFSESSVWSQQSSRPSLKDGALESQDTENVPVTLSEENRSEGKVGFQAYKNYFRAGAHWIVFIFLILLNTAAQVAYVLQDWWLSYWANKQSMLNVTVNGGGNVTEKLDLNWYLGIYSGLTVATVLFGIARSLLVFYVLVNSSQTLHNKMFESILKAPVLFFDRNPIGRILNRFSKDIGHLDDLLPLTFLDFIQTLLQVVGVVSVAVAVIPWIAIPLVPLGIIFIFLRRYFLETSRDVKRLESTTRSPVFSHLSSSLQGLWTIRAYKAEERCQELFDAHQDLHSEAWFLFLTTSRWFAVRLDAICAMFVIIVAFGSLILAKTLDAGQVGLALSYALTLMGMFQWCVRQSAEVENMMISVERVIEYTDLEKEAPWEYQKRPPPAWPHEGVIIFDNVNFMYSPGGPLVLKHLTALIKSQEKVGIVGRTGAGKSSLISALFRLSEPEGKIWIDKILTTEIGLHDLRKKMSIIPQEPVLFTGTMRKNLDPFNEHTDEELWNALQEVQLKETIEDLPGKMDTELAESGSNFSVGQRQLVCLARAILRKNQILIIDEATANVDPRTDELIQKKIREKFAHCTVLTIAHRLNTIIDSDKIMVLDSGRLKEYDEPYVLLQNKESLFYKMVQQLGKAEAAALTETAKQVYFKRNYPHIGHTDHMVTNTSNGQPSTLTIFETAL

Bile salt export pump = Bile salt export pump (Homo sapiens, UniProt O95342); assay: Inhibition of human BSEP overexpressed in Sf9 cell membrane vesicles assessed as uptake of [3H]-taurocholate in presence of ATP measured after 15 to 20 mins by membrane vesicle transport assay; format: ADME, cell-based
Chain of Bile salt export pump (O95342 whole entry): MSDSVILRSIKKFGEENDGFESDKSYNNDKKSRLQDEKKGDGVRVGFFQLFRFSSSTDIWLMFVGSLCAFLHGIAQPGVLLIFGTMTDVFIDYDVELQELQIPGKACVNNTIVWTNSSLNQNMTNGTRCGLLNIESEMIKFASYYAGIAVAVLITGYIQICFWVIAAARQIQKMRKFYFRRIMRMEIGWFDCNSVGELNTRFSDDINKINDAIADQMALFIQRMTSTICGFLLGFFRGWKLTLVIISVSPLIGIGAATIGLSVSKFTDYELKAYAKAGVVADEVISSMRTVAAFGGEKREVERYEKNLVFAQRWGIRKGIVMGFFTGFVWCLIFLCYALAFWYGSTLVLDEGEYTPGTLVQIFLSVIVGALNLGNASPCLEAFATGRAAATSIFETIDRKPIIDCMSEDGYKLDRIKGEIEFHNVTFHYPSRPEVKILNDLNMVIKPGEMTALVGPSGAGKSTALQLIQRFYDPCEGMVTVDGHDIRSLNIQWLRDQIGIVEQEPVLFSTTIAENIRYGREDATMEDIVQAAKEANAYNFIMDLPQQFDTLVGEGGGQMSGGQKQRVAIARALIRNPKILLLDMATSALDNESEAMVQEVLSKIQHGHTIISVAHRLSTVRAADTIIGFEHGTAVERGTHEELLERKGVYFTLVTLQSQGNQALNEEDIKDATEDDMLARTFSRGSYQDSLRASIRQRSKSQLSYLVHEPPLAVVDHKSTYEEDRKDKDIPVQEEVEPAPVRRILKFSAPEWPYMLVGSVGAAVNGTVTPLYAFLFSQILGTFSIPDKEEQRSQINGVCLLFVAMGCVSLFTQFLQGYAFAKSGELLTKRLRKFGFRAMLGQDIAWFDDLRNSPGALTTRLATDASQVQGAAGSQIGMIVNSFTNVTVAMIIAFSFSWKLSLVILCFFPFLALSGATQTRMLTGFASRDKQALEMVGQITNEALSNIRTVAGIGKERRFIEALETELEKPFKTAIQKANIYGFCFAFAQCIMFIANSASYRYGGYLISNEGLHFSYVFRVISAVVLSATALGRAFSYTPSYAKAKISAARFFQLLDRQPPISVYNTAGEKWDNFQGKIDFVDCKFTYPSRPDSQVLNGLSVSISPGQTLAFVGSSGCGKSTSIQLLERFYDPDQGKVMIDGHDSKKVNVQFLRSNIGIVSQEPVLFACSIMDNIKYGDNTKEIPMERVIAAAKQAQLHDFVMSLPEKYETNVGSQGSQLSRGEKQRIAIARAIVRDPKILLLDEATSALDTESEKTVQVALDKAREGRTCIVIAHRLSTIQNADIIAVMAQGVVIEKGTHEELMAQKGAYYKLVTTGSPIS

[4] = target: ATP-binding cassette sub-family C member 3 (Homo sapiens, UniProt O15438); assay: Inhibition of human MRP3 overexpressed in Sf9 insect cell membrane vesicles assessed as uptake of [3H]-estradiol-17beta-D-glucuronide in presence of ATP and GSH measured after 10 mins by membrane vesicle transport assay; format: ADME, cell-based
Chain of ATP-binding cassette sub-family C member 3 (O15438 whole entry): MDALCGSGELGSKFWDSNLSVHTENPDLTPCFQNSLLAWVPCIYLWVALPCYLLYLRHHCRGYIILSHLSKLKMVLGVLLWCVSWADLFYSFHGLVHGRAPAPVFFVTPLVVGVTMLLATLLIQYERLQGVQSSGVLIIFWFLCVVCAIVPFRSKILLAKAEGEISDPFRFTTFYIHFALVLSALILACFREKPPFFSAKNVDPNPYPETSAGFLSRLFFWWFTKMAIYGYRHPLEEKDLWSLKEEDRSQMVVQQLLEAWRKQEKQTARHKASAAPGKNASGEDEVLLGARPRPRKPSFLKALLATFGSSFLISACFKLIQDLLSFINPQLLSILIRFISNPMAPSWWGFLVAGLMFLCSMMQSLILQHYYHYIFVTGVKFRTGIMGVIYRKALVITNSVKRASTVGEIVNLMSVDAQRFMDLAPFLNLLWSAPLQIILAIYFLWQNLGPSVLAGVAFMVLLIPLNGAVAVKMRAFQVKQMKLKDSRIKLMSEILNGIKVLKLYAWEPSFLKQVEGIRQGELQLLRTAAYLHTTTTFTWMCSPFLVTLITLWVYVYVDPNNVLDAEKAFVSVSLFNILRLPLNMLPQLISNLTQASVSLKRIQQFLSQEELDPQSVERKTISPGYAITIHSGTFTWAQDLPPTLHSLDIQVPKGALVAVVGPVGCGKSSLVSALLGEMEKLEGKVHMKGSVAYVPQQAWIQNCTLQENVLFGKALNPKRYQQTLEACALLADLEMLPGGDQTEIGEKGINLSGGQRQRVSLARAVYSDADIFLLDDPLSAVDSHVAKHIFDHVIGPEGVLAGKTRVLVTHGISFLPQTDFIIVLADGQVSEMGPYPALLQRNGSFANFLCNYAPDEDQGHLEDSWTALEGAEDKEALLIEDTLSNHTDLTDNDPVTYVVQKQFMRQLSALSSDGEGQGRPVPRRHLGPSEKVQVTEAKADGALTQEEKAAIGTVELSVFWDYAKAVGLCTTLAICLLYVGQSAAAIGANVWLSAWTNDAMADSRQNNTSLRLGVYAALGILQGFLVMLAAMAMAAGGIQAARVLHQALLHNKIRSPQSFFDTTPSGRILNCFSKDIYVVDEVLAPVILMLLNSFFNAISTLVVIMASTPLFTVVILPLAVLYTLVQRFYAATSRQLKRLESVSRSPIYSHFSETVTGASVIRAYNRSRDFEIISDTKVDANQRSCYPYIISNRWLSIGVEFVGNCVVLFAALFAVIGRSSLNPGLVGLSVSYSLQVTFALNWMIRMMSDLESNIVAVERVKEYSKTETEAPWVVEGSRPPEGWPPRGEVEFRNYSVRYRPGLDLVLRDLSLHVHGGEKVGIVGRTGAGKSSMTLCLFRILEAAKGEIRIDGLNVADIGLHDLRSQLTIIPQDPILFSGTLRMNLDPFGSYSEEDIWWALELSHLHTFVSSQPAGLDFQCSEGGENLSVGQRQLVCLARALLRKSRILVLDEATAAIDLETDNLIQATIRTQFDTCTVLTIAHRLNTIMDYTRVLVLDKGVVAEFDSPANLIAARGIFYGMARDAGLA

clinical = settings: human, in vivo, po, 10 mg
[5] = AUC in human at 5 to 10 mg, po QD after 24 hrs; format: ADME, organism-based; settings: in vivo
[6] = Ratio of drug concentration at steady state in human at 5 to 10 mg, po QD after 24 hrs to IC50 for human BSEP overexpressed in Sf9 insect cells; format: ADME, organism-based; settings: in vivo
[7] = Drug concentration at steady state in human at 5 to 10 mg, po QD after 24 hrs; format: ADME, organism-based; settings: in vivo, read-out: Css
[8] = Ratio of drug concentration at steady state in human at 5 to 10 mg, po QD after 24 hrs to IC50 for human MRP4 overexpressed in Sf9 insect cells; format: ADME, organism-based; settings: in vivo
[9] = AUC in human at 1 to 40 mg, po QD after 24 hrs; format: ADME, organism-based; settings: in vivo
[10] = Drug concentration at steady state in human at 1 to 40 mg, po QD after 24 hrs; format: ADME, organism-based; settings: in vivo, read-out: Css
[11] = Ratio of drug concentration at steady state in human at 9 mg, po QD after 24 hrs to IC50 for human MRP4 overexpressed in Sf9 insect cells; format: ADME, organism-based; settings: in vivo
[12] = Drug concentration at steady state in human at 9 mg, po QD after 24 hrs; format: ADME, organism-based; settings: in vivo, read-out: Css
[13] = Ratio of drug concentration at steady state in human at 9 mg, po QD after 24 hrs to IC50 for human MRP3 overexpressed in Sf9 insect cells; format: ADME, organism-based; settings: in vivo
[14] = AUC in human at 9 mg, po QD after 24 hrs; format: ADME, organism-based; set-up: time < 24 hr, dose 9 mg, route oral; settings: in vivo
[15] = Ratio of drug concentration at steady state in human at 9 mg, po QD after 24 hrs to IC50 for human BSEP overexpressed in Sf9 insect cells; format: ADME, organism-based; settings: in vivo
Homo sapiens = assay: Drug concentration at steady state in human at 1 ug/ml, po QD after 24 hrs; format: ADME, organism-based; settings: in vivo
[16] = Ratio of drug concentration at steady state in human at 1 ug/ml, po QD after 24 hrs to IC50 for human BSEP overexpressed in Sf9 insect cells; format: ADME, organism-based
[17] = AUC in human at 1 ug/ml, po QD after 24 hrs; format: ADME, organism-based; set-up: dose 1 ug/ml, time < 24 hr, route oral; settings: in vivo
[18] = Ratio of drug concentration at steady state in human administered intraocularly as 1 drop QD of 0.03% solution after 24 hrs to IC50 for human BSEP overexpressed in Sf9 insect cells; format: ADME; settings: topical_or_ocular
[19] = Ratio of drug concentration at steady state in human at 10 mg, po after 24 hrs to IC50 for human BSEP overexpressed in Sf9 insect cells; format: ADME, organism-based; settings: in vivo
[20] = Drug concentration at steady state in human at 10 mg, po after 24 hrs; format: ADME, organism-based; settings: in vivo, read-out: Css
[21] = AUC in human at 10 mg, po after 24 hrs; format: ADME, organism-based; set-up: time < 24 hr, dose 10 mg, route oral; settings: in vivo

Chain of ATP-binding cassette sub-family C member 2 (Q92887 whole entry): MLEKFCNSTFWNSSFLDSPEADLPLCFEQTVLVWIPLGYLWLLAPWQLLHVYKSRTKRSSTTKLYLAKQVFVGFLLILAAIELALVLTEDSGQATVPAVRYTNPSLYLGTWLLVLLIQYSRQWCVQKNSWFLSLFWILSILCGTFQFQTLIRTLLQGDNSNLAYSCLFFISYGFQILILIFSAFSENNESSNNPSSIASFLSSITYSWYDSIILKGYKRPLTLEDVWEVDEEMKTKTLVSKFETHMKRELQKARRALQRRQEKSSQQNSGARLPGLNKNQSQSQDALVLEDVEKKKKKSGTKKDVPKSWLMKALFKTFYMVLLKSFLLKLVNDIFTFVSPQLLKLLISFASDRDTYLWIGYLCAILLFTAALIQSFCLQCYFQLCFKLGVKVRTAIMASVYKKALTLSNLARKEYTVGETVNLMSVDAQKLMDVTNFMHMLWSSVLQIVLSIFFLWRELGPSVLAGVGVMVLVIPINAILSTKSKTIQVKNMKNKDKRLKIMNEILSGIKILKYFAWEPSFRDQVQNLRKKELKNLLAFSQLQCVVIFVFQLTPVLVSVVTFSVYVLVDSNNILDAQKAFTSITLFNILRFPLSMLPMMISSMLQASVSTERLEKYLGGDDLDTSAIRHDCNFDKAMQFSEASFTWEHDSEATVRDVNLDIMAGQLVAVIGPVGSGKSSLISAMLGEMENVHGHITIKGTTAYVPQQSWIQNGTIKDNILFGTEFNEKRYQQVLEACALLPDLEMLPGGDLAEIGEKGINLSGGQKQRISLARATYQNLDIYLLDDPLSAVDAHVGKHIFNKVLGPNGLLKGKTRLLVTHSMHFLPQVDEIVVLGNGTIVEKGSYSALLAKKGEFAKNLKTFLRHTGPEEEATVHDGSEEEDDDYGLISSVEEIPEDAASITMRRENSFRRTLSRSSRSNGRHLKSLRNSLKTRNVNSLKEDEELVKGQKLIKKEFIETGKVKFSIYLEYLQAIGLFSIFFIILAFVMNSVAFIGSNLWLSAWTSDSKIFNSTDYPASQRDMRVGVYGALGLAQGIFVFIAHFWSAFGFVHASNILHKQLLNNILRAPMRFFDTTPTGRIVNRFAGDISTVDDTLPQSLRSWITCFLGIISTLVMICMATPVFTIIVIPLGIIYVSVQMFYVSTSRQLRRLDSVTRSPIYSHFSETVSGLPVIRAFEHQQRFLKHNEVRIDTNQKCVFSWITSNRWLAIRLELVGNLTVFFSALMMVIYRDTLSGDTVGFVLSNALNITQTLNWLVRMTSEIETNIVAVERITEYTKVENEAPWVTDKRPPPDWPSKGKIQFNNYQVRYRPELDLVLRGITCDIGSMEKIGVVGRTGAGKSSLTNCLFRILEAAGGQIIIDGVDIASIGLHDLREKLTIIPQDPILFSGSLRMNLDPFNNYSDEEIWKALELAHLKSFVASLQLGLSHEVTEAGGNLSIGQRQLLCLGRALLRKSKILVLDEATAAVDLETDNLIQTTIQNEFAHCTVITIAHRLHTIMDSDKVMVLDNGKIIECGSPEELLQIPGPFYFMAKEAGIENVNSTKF

Row | SMILES | IC50 [1] [µM] | IC50 [3] [µM] | IC50 [4] [µM] | IC50 (Bile salt export pump) [µM] | also measured
1 | CCOC(=O)N1CCC(=C2c3ccc(Cl)cc3CCc3cccnc32)CC1 [LORATADINE] | > 133 | > 133 | > 133 | 12 | concentration at 24 h [2]: 1 nM; AUC at 24 h (clinical): 0.029 µM·h
2 | Cl.OCCN1CCN(CCCN2c3ccccc3Sc3ccc(C(F)(F)F)cc32)CC1 | > 133 | > 133 | > 133 | 87.3 | AUC at 24 h [9]: 0.03 µM·h; concentration at 24 h [10]: 1 nM
3 | CCCC1O[C@@H]2C[C@H]3[C@@H]4CCC5=CC(=O)C=C[C@]5(C)[C@H]4[C@@H](O)C[C@]3(C)[C@]2(C(=O)CO)O1 (stereo partly drawn) [BUDESONIDE] | > 133 | 37 | 54.5 | 46 | Ratio [11]: 0; concentration at 24 h [12]: 0.629 nM; Ratio [13]: 0; AUC at 24 h [14]: 0.0151 µM·h; Ratio [15]: 0.00001
4 | C=C1/C(=C\C=C2/CCC[C@]3(C)[C@@H]([C@H](C)CCCC(C)(C)O)CC[C@@H]23)C[C@@H](O)C[C@@H]1O [CALCITRIOL] | > 133 | > 133 | > 133 | 39.7 | Css (Homo sapiens): 0 nM; Ratio [16]: 1.6e-6; AUC at 24 h [17]: 0.002 µM·h
5 | CCNC(=O)CCC/C=C\C[C@@H]1[C@@H](/C=C/[C@@H](O)CCc2ccccc2)[C@H](O)C[C@@H]1O [BIMATOPROST] | > 133 | > 133 | > 133 | 40.4 | Ratio [18]: 2e-7

Now from value to compound, other results behind:

Row | IC50 [1] [µM] | IC50 [3] [µM] | IC50 [4] [µM] | SMILES | IC50 (Bile salt export pump) [µM] | also measured
6 | > 133 | 22.5 | > 133 | CC(=O)O[C@]1(C(C)=O)CC[C@H]2[C@@H]3C[C@H](C)C4=CC(=O)CC[C@]4(C)[C@H]3CC[C@@]21C [MEDROXYPROGESTERONE ACETATE] | 15.7 | AUC at 24 h [5]: 0.016 µM·h; Ratio [6]: 0.00004; concentration at 24 h [7]: 1 nM; Ratio [8]: 0
7 | > 133 | > 133 | > 133 | O=C1[C@H](CC[C@H](O)c2ccc(F)cc2)[C@@H](c2ccc(O)cc2)N1c1ccc(F)cc1 [EZETIMIBE] | 56 | Ratio [19]: 0.002; concentration at 24 h [20]: 134 nM; AUC at 24 h [21]: 3.2 µM·h
